# The supplement of paper PMC10307832
# Experiments:
# Assay in all cases: relative viability (nuclei count vs DMSO), 5 days (fraction); higher = more cells survive
# [1] = compound: C1CC(C2=C(C1)C3=C(N2)C=CC(=C3)Cl)C(=O)N [Selisistat] + Nc1ncn([C@H]2C[C@H](O)[C@@H](CO)O2)c(=O)n1 [Decitabine] (partner 2 µM)
# Summary of the method: (§1)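 Each reported value is a median over duplicate plates. It expresses relative viability: treated-well nuclei count divided by vehicle-well nuclei count. Lung cancer cell lines in 1536-well plates were dosed by pin tool a day after seeding, alone with one drug or with a fixed anchor-drug dose plus five library-drug doses (not always all listed) in √10 steps, and nuclei were counted after 5 days.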
# [2] = compound: c1ccc2c(CCNc3ccc(Nc4ccncc4)cc3)c[nH]c2c1 [Serdemetan] + COc1cccc2cc(-c3nc([C@H]4CC[C@H](C(=O)O)CC4)n4ncnc(N)c34)[nH]c12 [OSI-027] (partner 0.5 µM)
# Summary of the method: as §1
# [3] = compound: C1CC(C2=C(C1)C3=C(N2)C=CC(=C3)Cl)C(=O)N [Selisistat] + C[C@@H](Oc1cc(-c2cnn(C3CCNCC3)c2)cnc1N)c1c(Cl)ccc(F)c1Cl [Crizotinib] (partner 1 µM)
# Summary of the method: as §1
# [4] = compound: C1CC(C2=C(C1)C3=C(N2)C=CC(=C3)Cl)C(=O)N [Selisistat] + COc1cccc2cc(-c3nc([C@H]4CC[C@H](C(=O)O)CC4)n4ncnc(N)c34)[nH]c12 [OSI-027] (partner 0.5 µM)
# Summary of the method: as §1
Cell Line,relative viability ([1]; first compound 0.4 µM),relative viability ([1]; first compound 1.265 µM),relative viability ([1]; first compound 12.65 µM),relative viability ([1]; first compound 40 µM),relative viability ([2]; first compound 0.04 µM),relative viability ([2]; first compound 0.1265 µM),relative viability ([2]; first compound 0.4 µM),relative viability ([2]; first compound 1.265 µM),relative viability ([2]; first compound 4 µM),relative viability ([3]; first compound 0.4 µM),relative viability ([3]; first compound 1.265 µM),relative viability ([3]; first compound 4 µM),relative viability ([3]; first compound 12.65 µM),relative viability ([3]; first compound 40 µM),relative viability ([4]; first compound 0.4 µM),relative viability ([4]; first compound 1.265 µM),relative viability ([4]; first compound 4 µM),relative viability ([4]; first compound 12.65 µM),relative viability ([4]; first compound 40 µM),relative viability ([1]; first compound 4 µM)
PC-3 [JPC-3],0.834,0.837,0.818,0.794,0.83,0.741,0.58,0.749,0.831,1.02,1.01,0.936,1.01,1.07,0.931,0.776,0.739,0.662,0.731,
HOP-62,0.22,0.211,0.227,0.192,0.869,0.842,0.856,0.71,0.758,0.682,0.957,1.09,0.801,0.988,0.856,0.788,0.826,0.809,0.915,0.215
HARA,0.777,0.529,0.48,0.647,0.528,0.703,0.395,0.274,0.304,0.95,1.01,1,1,0.981,0.632,0.405,0.382,0.508,0.477,
NCI-H838,0.557,0.459,0.45,0.454,0.434,0.416,0.461,0.387,0.463,0.819,0.841,0.888,0.759,0.801,0.449,0.368,0.295,0.407,0.409,0.475
